{"source": "patent US20160199434A1", "about": "“COMPOSITIONS AND METHODS FOR MODULATING DNA METHYLATION” (OHIO STATE INNOVATION FOUNDATION, priority 2013, published 2016)", "key": {"DNMT-3a [1]": {"tested_on": "DNMT-3a", "experiment": "DNMT-3a transcription in A549 lung cancer cells", "format": "cell-based, human", "conditions": "A549 cells (FIG. 10B)", "description": "In FIG. 10A, AKB-6899 inhibited DNMT-1, DNMT-3a, and DNMT-3b transcription in a dose-dependent manner in human squamous cell carcinoma lung cancer cells (H1703), in vitro. The DMSO-treated DNMT mRNAs are over 1.0, meaning the level of expression is higher than the housekeeping control gene, CAP1. In FIG. 10B, AKB-6899 inhibited DNMT-3a and DNMT-3b transcription in human adenocarcinoma lung cancer cells (A549). The DMSO-treated DNMT mRNAs are under 1.0, meaning the level of expression is lower than the housekeeping control gene, CAP1."}, "DSP promoter": {"tested_on": "DSP promoter", "experiment": "Percent CpG methylation of DSP promoter in HeLa cells", "format": "cell-based, human", "conditions": "5 or 25 μM, compared to DMSO and PBA (FIG. 6B)", "method": "HeLa cervical cancer cells were left untreated, were treated with DMSO, were treated with 5-AZA, were treated with AKB-6899 (5 or 25 μM), or were treated with PBA (2 mM)."}, "DNMT-3a [2]": {"tested_on": "DNMT-3a", "experiment": "DNMT-3a mRNA expression by RT-PCR in MDA-MB-231 tumor cells", "format": "cell-based, human", "conditions": "25 μM, 24 hours, compared to DMSO (FIG. 1B)", "method": "(§1) FIGS. 1A-1E show DNA methyltransferase mRNA expression in vitro and in vivo. […] PyMT tumor cells were left untreated, were treated with DMSO, or were treated with AKB-6899 (10, 25, or 50 μM) for 24 hours. The cells were subjected to Trizol extraction to recover total RNA. cDNA was synthesized for RT-PCR of DNMT-1 and DNMT-3a mRNA expression. […] Human MDA-MB-231 tumor cells were left untreated, were treated with DMSO, or were treated with AKB-6899 (25 μM) for 24 hours. Total RNA was isolated for RT-PCR. FIG. 1C (DNMT-1), FIG. 1D (DNMT-3a), and FIG. 1E (DNMT-3b) compare the effect of AKB-6899 with the effect of 5-aza-2′deoxycytidine (5-AZA) as assessed by RT-PCR in human cervical tumors implanted in mice that were either untreated (UTX), treated with DMSO, treated with 5-AZA, or treated with AKB-6899 (17.5 mg/kg).\nTo determine whether the decrease in DNMT expression and the increase in DSP expression were relevant in human cancer, the level of desmoplakin expression in MDA-MB-231 human triple negative breast cancer cells was determined. […] (FIG. 3B)."}, "c-Myc": {"tested_on": "c-Myc", "experiment": "c-Myc expression (relative copy number) in human cervical tumors in animals", "format": "in vivo", "conditions": "animal models of human cervical tumors, 17.5 mg/kg (FIG. 7B)", "method": "Animal models of human cervical tumors were untreated, treated with DMSO, treated with 5-AZA or treated with AKB-6899 (17.5 mg/kg)."}, "DNMT-1": {"tested_on": "DNMT-1", "experiment": "DNMT-1 mRNA expression in lungs of normal mice after systemic administration", "format": "in vivo, mouse", "conditions": "i.p. 17.5 mg/kg three times per week for three weeks, vs DMSO", "method": "(§2) FIGS. 14A-14C show the effects of systemic administration of AKB-6899. Mice were treated three times per week for three weeks with either i.p. AKB-6899 or i.p. DMSO. The lungs were removed and assayed to determine DNMT mRNA expression, percent CpG methylation, and fold change in mRNA. […] The data was standardized to 1.0 by the DMSO levels of the respective gene expression, (n=4 lungs per condition)."}, "desmoplakin mRNA": {"tested_on": "desmoplakin mRNA", "experiment": "Desmoplakin mRNA expression in cultured PyMT cells", "format": "cell-based, mouse", "method": "FIGS. 3A-3E show the effect of AKB-6899 (25 μM) on methylation of the desmoplakin (DSP) gene promoter in PyMT breast cancer cells (3A), human MDA-MB-231 triple negative breast cancer cells (3B), human C8161.9 melanoma cells (3C), and human MCF-7 breast cancer cells (3D). In FIG. 3A, the DSP promoter was 100% unmethylated (AKB-6899) vs. 99.99% methylated (vehicle). In FIG. 3B, the DSP promoter was 99.62% unmethylated (AKB-6899) v. 99.89% (vehicle). In FIG. 3C, the DSP promoter was 99.90% unmethylated (AKB-6899) v. 42.04% (vehicle). In FIG. 3D, the DSP promoter was 92.48% unmethylated (AKB-6899) v. 98.48% (vehicle). In FIG. 3E, when compared to the vehicle (DMSO), treatment of PyMT cells with AKB-6899 increased DSP expression.\nFIGS. 4A-4B show desmoplakin mRNA expression in vitro and in vivo."}, "RASSF1 mRNA": {"tested_on": "RASSF1 mRNA", "experiment": "RASSF1 mRNA expression in lungs of normal mice", "format": "in vivo, mouse", "conditions": "i.p., three weeks (FIG. 14C)", "method": "as §2"}, "DNMT-3a [3]": {"tested_on": "DNMT-3a", "experiment": "DNMT-3a mRNA expression by RT-PCR in PyMT tumor cells", "format": "cell-based, mouse", "conditions": "for DNMT-3a mRNA expression: PyMT tumor cells, 24 hours, compared to DMSO (FIG. 1A)", "method": "as §1\nBecause DSP is regulated by ER/PR expression, and because late-stage PyMT tumors lose ER/PR-positivity and heavily metastasize to the lymph nodes and lungs (Lin et al., 2003), the effects of AKB-6899 on more global events that regulate gene expression was evaluated. PyMT tumor cells in culture were treated with DMSO or AKB-6899. Methylation-specific PCR for CpG islands in the desmoplakin promoter were performed. […] Trypan Blue confirmed no cell death in AKB-6899 treated cells when compared to control cells. The experiment was repeated and RNA was isolated from the cells. RT-PCR was performed and the regulation of DNA methyltransferases (DNMTs) was evaluated. […] (FIG. 1A). The decrease in mRNA levels of DNMT-1 and DNMT-3a increased the mRNA level of DSP (FIG. 4A) and increased desmoplakin protein expression (FIG. 5A)."}}, "note": "Entries after “also recorded” stand apart in the source; their conditions may differ.", "data": [{"smiles": "O=C(O)CNC(=O)c1ncc(-c2cccc(F)c2)cc1O", "note": "[AKB-6899, {[5-(3-Fluorophenyl)-3-hydroxypyridine-2-carbonyl]amino}acetic acid]", "values": [{"measurement": "DNMT-3a transcription", "setting": "DNMT-3a [1]", "result": "inhibited"}, {"measurement": "demethylation of DSP promoter (percent CpG methylation)", "setting": "DSP promoter", "result": "increase in demethylation"}, {"measurement": "DNMT-3a mRNA expression", "setting": "DNMT-3a [2]", "result": "significantly decreased; also recorded: downregulated"}, {"measurement": "c-Myc expression", "setting": "c-Myc", "result": "inhibited"}, {"measurement": "DNMT-1 expression in lungs", "setting": "DNMT-1", "result": "inhibited"}, {"measurement": "DSP expression", "setting": "desmoplakin mRNA; PyMT cells, compared to vehicle (DMSO) (FIG. 3E)", "result": "increased"}, {"measurement": "desmoplakin mRNA expression", "setting": "desmoplakin mRNA; cultured PyMT cells, 10 μM, compared to DMSO (FIG. 4A)", "result": "significantly increases"}, {"measurement": "RASSF1 mRNA expression in lungs", "setting": "RASSF1 mRNA", "result": "increased"}, {"measurement": "DNMT-3a mRNA level", "setting": "DNMT-3a [3]; PyMT tumor cells in culture, concentration not given", "result": "significant decreases; also recorded: downregulated"}, {"measurement": "DNMT-3a mRNA expression", "setting": "DNMT-3a [3]; 25 μM", "result": "significantly inhibited"}, {"measurement": "DNMT-3a mRNA expression", "setting": "DNMT-3a [3]; 50 μM", "result": "significantly inhibited"}]}]}
